Data reported in patent publication US20220339233A1, “COMPOSITIONS AND METHODS FOR PREVENTING RECURRENCE OF CANCER” (YALE UNIVERSITY, priority 2019, published 2022).

Assays:
[1] = target: T1, mouse IDO (Mus musculus, UniProt P28776); test: IDO activity of IDO transfected HEK293 cells; assay type: cell-based; conditions: L-tryptophan 125 μM, 24 hr, kynurenine in medium
T1 construct: expressed in transfected cells; host or cells: HEK293
Experimental: HEK293 cells were transfected with mouse IDO expression plasmids and then seeded for culturing overnight. L-tryptophan 125 μM with or without YIV906, YIV906GU or its flavonoids were added to the wells for 24 hr. The concentration of kynurenine of culture medium was measured using colorimetric based assay. Results were normalized to protein concentration in each well.
2×10^6 HEK293 cells were transfected with mouse IDO (2 μg/10 cm plate) for 48 h. For one plate, 1 mL PBS was used to collect cells into a 2 ml tube. Cells were centrifuged at 3,500 rpm 1 min. Cells were then sonicated in ice cold PB buffer (1 mL, pH 6.5). Cell lysis was clarified by centrifuging at 12,000 rpm for 5 min at 4° C. 25 μL cell lysis solution was mixed with YIV906 or YIV906GU (25 μL) at desired concentrations. Reaction buffer containing 50 μL PB buffer (100 mM, pH 6.5), 10 μL methylene blue (2.5%), 100 μL catalase (20 mg/mL), 250 μL L-tryptophan (500 mM) and, for every 10 mL of total solution, 70 mg of vitamin C. The reaction buffer was then added to the cell lysis solution. The solution was allowed to react for 1.5 h at 37° C. Trichloroacetic acid 30% (25 μL) was added and incubated at 50° C. for 1 hr. […] Absorbance at 540 nm was measured using a UV-vis spectrometer to determine kynurenine concentration.

[2] = test system: Raw cells; test: iNOS/Arg mRNA expression of macrophage with IFNγ (RT-qPCR); assay type: cell-based; conditions: in the presence of IFNγ 10 ng/mL; GU treated
Experimental: (§1) FIGS. 12A-12C show the effects of various YIV-906 formulations on M1/M2 mRNA expression. […] Raw cells were cultured in the presence of murine M-CSF (10 ng/mL) for 3 days, and then cultured in presence with IFNγ 10 ng/mL alone or with YIV-906GU/its components to induce polarization to M1-like macrophage for 24 h. The mRNA expression was determined by RT-qPCR following treatment at day 8. FIG. 12C illustrates the detection of YIV-906 compounds of Hepa 1-6 tumor following oral administration of YIV-906 with or without Anti-PD1 using LC-MS as described herein.
Total RNA was extracted with TRIzol reagent (Invitrogen, California, USA). The aqueous phase was collected and then one volume of ethanol was added, following the manufacturer's instructions. Before centrifuging, this slurry was added to a column (miRNeasy, Qiagen, Venlo, Limburg) for further extraction and simultaneous DNA digestion (RNase-Free DNAse set, Qiagen). cDNA was synthesized using random primers and reverse transcriptase MMLV (New England Biolabs, Ipswich, MA). qPCR assays were performed using iTaq™ SYBR® Green Supermix and the CFX96 Real-Time PCR Detection System (Bio-Rad Laboratories, Hercules, Calif.).

[3] = LC-MS detection of YIV-906 compounds of Hepa 1-6 tumor; design: species or system mice; conditions: mouse, in vivo; for detection in the tumor mass: po
Experimental: as §1
Each tumor sample were homogenized in 200 μL acetronitrile/methanol/water(2/2/1, v/v/v) and 1 mm glass beads (BioSpec Products, Bartlesville, Okla.) for 30 s at 3500 rpm twice. The homogenate was then centrifuged at 12000 rpm for 15 min at 4° C. The supernatant was dried down in a Speedvac. The residue of each tumor sample was re-dissolved in 100 μL of acetonitrile, and vortexed at 3000 rpm for 3 min. The solution was then centrifuged at 12000 rpm at 4° C. for 15 min, and 2 μL supernatant was injected into the UPLC-QTOF system for analysis. All sample analyses were performed on an ACQUITY ultra-performance liquid chromatography (UPLC) system coupled with a quadrupole-time of flight (Q-TOF) MS instrument (UPLC Xevo G2-XS QTOF MS, Waters Corp., Milford, Mass., USA) with an electrospray ionization (ESI) source. Separation was carried out on a Waters ACQUITY BEH C18 column (2.1 mm×100 mm id, 1.7 μm) with a guard column (Waters ACQUITY BEH C18 column (2.1 mm×5 mm id, 1.7 μm)).
The mobile phase consisted of acetonitrile (A) and water containing 0.1% formic acid (B) using a gradient elution of 5% A at 0-2 min, 5-10% A at 2-3 min, 10-17% A at 3-10 min, 17-30% A at 10-15 min, 30-40% A at 15-20 min, 40-80% A at 20-25 min, 80% A at 25-30 min, 80-5% A at 30-31 min, and 5% A at 31-35 min. The flow rate was 0.3 mL/min. Mass spectrometry was performed on a Water Xevo G2-XS QTOF. The scan range was from 50 to 1000 Da. For the negative electrospray mode, the capillary voltage and cone voltage were set at 2.5 kV and 60 V, respectively. […]

T1 sequence (P28776 whole entry): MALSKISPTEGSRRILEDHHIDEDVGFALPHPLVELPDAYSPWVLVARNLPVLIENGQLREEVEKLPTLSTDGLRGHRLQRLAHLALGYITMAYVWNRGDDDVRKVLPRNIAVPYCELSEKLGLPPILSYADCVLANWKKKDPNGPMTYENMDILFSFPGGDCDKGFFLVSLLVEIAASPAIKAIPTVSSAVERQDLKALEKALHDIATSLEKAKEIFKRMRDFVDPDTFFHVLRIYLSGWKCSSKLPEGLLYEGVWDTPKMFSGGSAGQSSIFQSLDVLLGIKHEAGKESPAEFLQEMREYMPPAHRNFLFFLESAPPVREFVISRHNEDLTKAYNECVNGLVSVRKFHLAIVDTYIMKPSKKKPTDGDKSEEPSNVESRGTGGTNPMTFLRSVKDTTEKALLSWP

Row | IDO enzyme activity in cell cultures [1] | presence in tumors of the YIV-906 plus anti-PD1 group [3] | SMILES | IFNγ action on increasing iNOS/Arg ratio [2] | detection in the tumor mass [3]
1 | most potent | did not have | O=c1cc(-c2ccccc2)oc2cc(O)c(O)c(O)c12 [baicalein] | potentiate | detected
2 | – | – | COc1c(O)cc2oc(-c3ccccc3)cc(=O)c2c1O [oroxylin A] | potentiate | detected
